Experimental data published in patent US20180177872A1, “Combination of PD-1 antagonist with an EGFR inhibitor” (priority 2015, published 2018).

Tests used:
[1] = test system: primary human CD4+ T cells; test: Human CD4 T cell proliferation assay; assay type: cell-based; conditions: Cellular
Experimental: In the Human CD4 T cell assay, primary human CD4+ T cells isolated from a leukopak were cultured in the presence of anti-CD3/anti-CD28 beads to stimulate T cell proliferation. After 4 days, cell viability was measured using Cell Titer Glo.

[2] = test system: TMD-8 cells (BTK); test: BTK-dependent TMD-8 cell proliferation assay; assay type: cell-based; conditions: Homo sapiens, TMD8, Cellular
Experimental: After 3 days, cell viability was measured using Cell Titer Glo.

[3] = test system: TEC-family kinases (ITK, TEC, and TXK); test: Cellular IL-2 production assay in Jurkat cells; assay type: cell-based; conditions: Homo sapiens, CD3/CD28 stimulation, read-out: IC50, IL2-Production
Experimental: The cellular IL-2 Production assay was carried out using Jurkat cells. Upon CD3/CD28 stimulation overnight in the presence of various concentrations of compound, the IL-2 content in the conditioned media was measured by ELISA, and compound IC50 was determined.

[4] = test system: mouse CD4+ T cells; test: Mouse CD4 T cell proliferation assay; assay type: cell-based; conditions: Cellular
[5] = test system: T-cell dependent antibody response; test: T-cell dependent antibody response (TDAR) assay with KLH; conditions: for anti-KLH IgG mean percent difference compared to vehicle controls / anti-KLH IgM mean percent difference compared to vehicle controls: 30 mg/kg/day
[6] = biological target: T1, TXK (Homo sapiens, UniProt P42681); test: TXK biochemical assay (Caliper LabChip)
T1 sequence (P42681 1-527): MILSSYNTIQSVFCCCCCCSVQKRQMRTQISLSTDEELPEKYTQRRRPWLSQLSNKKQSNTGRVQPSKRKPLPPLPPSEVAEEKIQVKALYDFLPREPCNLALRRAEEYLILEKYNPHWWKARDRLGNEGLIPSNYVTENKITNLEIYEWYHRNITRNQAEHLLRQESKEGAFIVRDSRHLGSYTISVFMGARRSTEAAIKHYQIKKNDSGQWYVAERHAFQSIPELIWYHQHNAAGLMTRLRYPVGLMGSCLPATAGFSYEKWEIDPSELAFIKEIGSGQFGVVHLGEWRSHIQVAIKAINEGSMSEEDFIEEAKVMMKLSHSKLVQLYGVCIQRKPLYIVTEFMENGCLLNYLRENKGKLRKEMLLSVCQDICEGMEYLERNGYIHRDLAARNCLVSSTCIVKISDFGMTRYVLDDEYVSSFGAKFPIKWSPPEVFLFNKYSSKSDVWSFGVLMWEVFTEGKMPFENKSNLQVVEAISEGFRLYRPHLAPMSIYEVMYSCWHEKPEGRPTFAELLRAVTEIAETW

[7] = biological target: T2, TEC (Homo sapiens, UniProt P42680); test: TEC biochemical assay (Caliper LabChip)
T2 sequence (P42680 1-631): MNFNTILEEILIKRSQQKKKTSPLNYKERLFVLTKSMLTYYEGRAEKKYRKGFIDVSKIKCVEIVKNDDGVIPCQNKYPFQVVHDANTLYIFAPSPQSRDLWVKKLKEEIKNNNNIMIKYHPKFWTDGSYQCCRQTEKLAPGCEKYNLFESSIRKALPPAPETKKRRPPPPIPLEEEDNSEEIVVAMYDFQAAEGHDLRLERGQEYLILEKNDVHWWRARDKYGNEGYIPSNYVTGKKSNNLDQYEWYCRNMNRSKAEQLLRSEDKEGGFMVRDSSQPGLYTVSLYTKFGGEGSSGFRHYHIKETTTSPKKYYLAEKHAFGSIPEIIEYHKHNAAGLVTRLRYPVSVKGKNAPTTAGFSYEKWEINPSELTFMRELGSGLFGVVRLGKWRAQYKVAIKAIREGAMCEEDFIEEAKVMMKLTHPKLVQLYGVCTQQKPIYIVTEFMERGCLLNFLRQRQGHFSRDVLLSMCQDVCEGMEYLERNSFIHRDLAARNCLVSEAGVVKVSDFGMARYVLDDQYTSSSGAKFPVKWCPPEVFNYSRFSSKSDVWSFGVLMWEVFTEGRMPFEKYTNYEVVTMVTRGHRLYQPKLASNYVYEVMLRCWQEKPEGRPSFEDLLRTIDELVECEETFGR

[8] = test system: mouse B cells; test: Mouse B cell proliferation assay; assay type: cell-based; conditions: Cellular
Experimental: In the Mouse B cell assay, B cells are purified from mouse splenocytes and plated in the tissue culture plates with supplement of anti-IgM and m-IL4. […] After 3 days, cell viability was measured using Cell Titer Glo.

[9] = Pharmacokinetic (PK) modeling of flat dosing schedules
[10] = Iso-electric focussing (Novex IEF) analysis; assay type: physicochemical; conditions: estimated from staining positions against the IEF 3-10 marker
Experimental: Non-reduced samples of Protein A purified antibody were electrophoresed as described below.
5 μg of Protein A purified samples were electrophoresed on a 1.0 mm Novex pH 3-10 gradient gel (Invitrogen, EC66552BOX) using manufacturers recommended running conditions. A 10 μl aliquot of IEF pH 3-10 markers (Invitrogen, 39212-01) was included on the gel. Once electrophoresed, gels were fixed with 10% TCA solution for 30 min and then stained with InstantBlue (TripleRed, ISB01L) over night at room temperature. Images of the stained gels were analysed on a BioSpectrum Imaging System (UVP).

[11] = biological target: human PD-1 protein (Homo sapiens, UniProt Q15116); test: Biacore binding on human PD-1 protein; conditions: Biacore method
Sequence of human PD-1 protein (Homo sapiens, UniProt Q15116) (Q15116 25-288): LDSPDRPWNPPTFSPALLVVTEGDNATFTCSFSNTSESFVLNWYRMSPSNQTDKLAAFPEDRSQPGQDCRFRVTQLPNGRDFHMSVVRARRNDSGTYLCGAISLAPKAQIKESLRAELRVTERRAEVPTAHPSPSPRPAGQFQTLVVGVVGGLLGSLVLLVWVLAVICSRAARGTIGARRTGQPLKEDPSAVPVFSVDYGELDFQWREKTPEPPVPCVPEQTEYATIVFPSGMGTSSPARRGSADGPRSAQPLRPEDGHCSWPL
Experimental: The binding of an exemplary humanized anti-PD-1 antibodies including Clone B and Clone E as shown in Table 1 on human PD-1 protein was measured using Biacore method.

[12] = biological target: cynomolgus PD-1 protein (cynomolgus, UniProt B0LAJ3 25-170); test: Biacore, cynomolgus PD-1
Sequence of cynomolgus PD-1 protein (B0LAJ3 entry or part of it limits assumed): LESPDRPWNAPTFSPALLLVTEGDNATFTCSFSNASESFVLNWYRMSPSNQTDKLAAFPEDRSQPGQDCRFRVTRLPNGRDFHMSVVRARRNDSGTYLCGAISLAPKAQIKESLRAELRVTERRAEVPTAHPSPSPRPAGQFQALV

[13] = biological target: T3, human PD-1 protein (human, UniProt Q15116 25-167, limits assumed); test: Biacore, human PD-1 protein
T3 construct: Soluble protein in the Biacore assay
T3 sequence (Q15116 25-167 limits assumed): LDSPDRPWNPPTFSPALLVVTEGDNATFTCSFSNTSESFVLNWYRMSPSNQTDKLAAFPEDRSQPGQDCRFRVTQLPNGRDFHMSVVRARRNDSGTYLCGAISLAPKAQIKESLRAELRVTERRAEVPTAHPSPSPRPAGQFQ

[14] = biological target: T4, human PD-1 expressed on 300.19 cells (human, UniProt Q15116 25-288); test: blocking of PD-L1 binding on human PD-1-expressing 300.19 cells; competitor PD-L1
T4 construct: whole, on cells; also called human PD-1-expressing 300.19 cells
T4 sequence (Q15116 25-288): as the sequence (Q15116 25-288) above

Cc1cc(C(=O)Nc2nc3cccc(Cl)c3n2[C@@H]2CCCCN(C(=O)/C=C/CN(C)C)C2)ccn1 [Compound A, (R,E)-N-(7-chloro-1-(1-(4-(dimethylamino)but-2-enoyl)azepan-3-yl)-1Hbenzo[d]imidazol-2-yl)-2-methylisonicotinamide]
IC50 [1]: 140 nM
IC50 [2]: 224 nM
IC50 [3]: 21 nM
IC50 [4]: 107 nM
anti-KLH IgG mean percent difference compared to vehicle controls ([5]; female rats, study day 19): −96%
anti-KLH IgM mean percent difference compared to vehicle controls ([5]; female rats, study day 19): −88%
anti-KLH IgG mean percent difference compared to vehicle controls ([5]; female rats, study day 21): −98%
anti-KLH IgM mean percent difference compared to vehicle controls ([5]; female rats, study day 21): −75%
anti-KLH IgG mean percent difference compared to vehicle controls ([5]; female rats, study day 23): −97%
anti-KLH IgM mean percent difference compared to vehicle controls ([5]; female rats, study day 23): −71%
anti-KLH IgG mean percent difference compared to vehicle controls ([5]; female rats, study day 25): −96%
anti-KLH IgM mean percent difference compared to vehicle controls ([5]; female rats, study day 25): −63%
anti-KLH IgG mean percent difference compared to vehicle controls ([5]; female rats, study day 36): −69%
anti-KLH IgM mean percent difference compared to vehicle controls ([5]; female rats, study day 36): −67%
decrease of anti-KLH antibody production after withdrawal of treatment ([5]; male and female rats, recovery day 42 and 53): reversible
anti-KLH IgG mean percent difference compared to vehicle controls ([5]; male rats, study day 19): −78%
anti-KLH IgM mean percent difference compared to vehicle controls ([5]; male rats, study day 19): −67%
anti-KLH IgG mean percent difference compared to vehicle controls ([5]; male rats, study day 21): −84%
anti-KLH IgG mean percent difference compared to vehicle controls ([5]; male rats, study day 23): −80%
anti-KLH IgG mean percent difference compared to vehicle controls ([5]; male rats, study day 25): −83%
IC50 [6]: 2 nM
IC50, TXK ([6]; Biochemical): single digit nM
IC50 [7]: 0.9 nM
IC50, TEC ([7]; Biochemical): single digit nM
IC50 [8]: 295 nM

BAP049-Clone E: humanized anti-programmed death-1 (PD-1) IgG4 monoclonal antibody; sequences in Table 1
Half-Life ([9]; 46 patients in PK dataset): 20 [17, 23] days
IIV of CL ([9]; 46 patients in PK dataset): 62%
IIV of Half-Life ([9]; 46 patients in PK dataset): 64%
IIV of Volume of distribution at SS ([9]; 46 patients in PK dataset): 22%
Volume of distribution at SS ([9]; 46 patients in PK dataset): 7.2 [6.5, 7.9] L
patients with Cmin above EC50 ([9]; flat dose): Over 99.5%
patients with Cmin above EC90 ([9]; flat dose): over 93%
CL ([9]; flat dosing schedules, 46 patients in PK dataset): 10.9 [8.9, 13.2] mL/h
Basic charge isoforms (pI) [10]: 7.55
pI of predominant charge isoform [10]: 7.5
Ka [11]: 278000 M⁻¹ s⁻¹
Kd ([11]; rate constant): 0.000213 s⁻¹

B1: BAP049-Clone-E (antibody, human IgG4 S228P, kappa, V domains shown)
VH: EVQLVQSGAEVKKPGESLRISCKGSGYTFTTYWMHWVRQATGQGLEWMGNIYPGTGGSNFDEKFKNRVTITADKSTSTAYMELSSLRSEDTAVYYCTRWTTGTGAYWGQGTTVTVSS
VL: EIVLTQSPATLSLSPGERATLSCKSSQSLLDSGNQKNFLTWYQQKPGQAPRLLIYWASTRESGVPSRFSGSGSGTDFTFTISSLEAEDAATYYCQNDYSYPYTFGQGTKVEIKR
notes: Humanized IgG4(S228P)/kappa; also called Antibody B; exemplary humanized anti-PD-1 antibody
Kd [12]: 0.093 nM
Kd [13]: 0.0827 nM
IC50 [14]: 0.94 nM
